The values that follow are results of earlier work, collected in publication PMC4807944 (International Journal of Nanomedicine, 2016).

The term Aqueous solubility denotes how much of the substance goes into solution per volume.

As for `C=CC[C@@H]1/C=C(\C)C[C@H](C)C[C@H](OC)[C@H]2O[C@@](O)(C(=O)C(=O)N3CCCC[C@H]3C(=O)O[C@H](/C(C)=C/[C@@H]3CC[C@@H](O)[C@H](OC)C3)[C@H](C)[C@@H](O)CC1=O)[C@H](C)C[C@@H]2OC` [FK506, Tacrolimus], the Aqueous solubility was 1 to 2 µg/mL.
